Data set [1] has as its target Myeloid Cell Leukemia 1 (Mcl-1) (Homo sapiens, UniProt Q07820). The data set can be described thus: Terbium labeled Mcl-1 HTRF binding assay (displacement of Cy5-labeled BIM BH3 peptide). Particulars: 25 pM Tb-Mcl-1, 8 nM Cy5 Bim peptide, Ki=IC50/(1+[L]/Kd), [L]=8 nM, Kd=10 nM, 60 min at room temperature, read-out: Tb-MCL1 Ki. On the procedure: Terbium labeled Myeloid Cell Leukemia 1 (Mcl-1) homogeneous time-resolved fluorescence (HTRF) binding assay utilizing the BIM BH3 peptide (H2N—(C/Cy5Mal) WIAQELRRIGDEFN-OH) as the binding partner for Mcl-1.
This assay evaluated inhibition of the BH3 domain: Mcl-1 interaction by measuring the displacement of Cy5-labeled BIM BH3 peptide (H2N—(C/Cy5Mal) WIAQELRRIGDEFN-OH) in the HTRF assay format.
The following assay and stock buffers were prepared for use in the assay: (a) Stock buffer: 10 mM Tris-HCl, pH=7.5+150 mM NaCl, filtered, sterilized, and stored at 4° C.; and (b) 1× assay buffer, where the following ingredients were added fresh to stock buffer: 2 mM dithiothreitol (DTT), 0.0025% Tween-20, 0.1 mg/mL bovine serum albumin (BSA). The 1×Tb-Mcl-1+Cy5 Bim peptide solution was prepared by diluting the protein stock solution using the 1×assay buffer (b) to 25 pM Tb-Mcl-1 and 8 nM Cy5 Bim peptide.
Using the Acoustic ECHO, 100 nL of 100×test compound(s) were dispensed into individual wells of a white 384-well Perkin Elmer Proxiplate, for a final compound concentration of 1×and final DMSO concentration of 1%. Inhibitor control and neutral control (NC, 100 nL of 100% DMSO) were stamped into columns 23 and 24 of assay plate, respectively. Into each well of the plate was then dispensed 10 μL of the 1× Tb-Mcl-1+Cy5 Bim peptide solution. The plate was centrifuged with a cover plate at 1000 rpm for 1 minute, then incubated for 60 minutes at room temperature with plates covered. The TR-FRET signal was read on an BMG PHERAStar FSX MicroPlate Reader at room temperature using the HTRF optic module (HTRF: excitation: 337 nm, light source: laser, emission A: 665 nm, emission B: 620 nm, integration start: 60 μs, integration time: 400 μs).
The BMG PHERAStar FSX MicroPlate Reader was used to measure fluorescence intensity at two emission wavelengths—665 nm and 620 nm—and report relative fluorescence units (RFU) for both emissions, as well as a ratio of the emissions (665 nm/620 nm)*10,000. The RFU values were normalized to percent inhibition as follows:
35% inhibition=(((NC−IC)−(compound−IC))/(NC−IC))*100
where IC (inhibitor control, low signal)=mean signal of 1× Tb-MCl-1+Cy5 Bim peptide+ inhibitor control or 100% inhibition of Mcl-1; NC (neutral control, high signal)=mean signal 1× Tb-MCl-1+Cy5 Bim peptide with DMSO only or 0% inhibition An 11-point dose response curve was generated to determine IC50 values (using GenData) based on the following equation:
Y=Bottom+(Top−Bottom)/(1+10^((log IC50−X)*HillSlope))
where Y=% inhibition in the presence of X inhibitor concentration; Top=100% inhibition derived from the IC (mean signal of Mcl-1+ inhibitor control); Bottom=0% inhibition derived from the NC (mean signal of Mcl-1+ DMSO); Hillslope=Hill coefficient; and IC50=concentration of compound with 50% inhibition in relation to top/neutral control (NC).
(In TR-FRET formats the signal depends on donor and acceptor labels being close together.)

The subject of data set [2] is MOLP-8 human multiple myeloma cell line. The data set is described as follows: Caspase-Glo 3/7 apoptosis induction assay in MOLP-8 cells. The class given is cell-based. Particulars: 2 hours at 37° C., caspase-3/7 luminescence, averaged over all runs on all batches, read-out: MOLP8 Caspase-Glo AC50. From the text: MCL-1 is a regulator of apoptosis and is highly over-expressed in tumor cells that escape cell death. The assay evaluates the cellular potency of small-molecule compounds targeting regulators of the apoptosis pathway, primarily MCL-1, Bfl-1, Bcl-2, and other proteins of the Bcl-2 family. Protein-protein inhibitors disrupting the interaction of anti-apoptotic regulators with BH3-domain proteins initiate apoptosis.
The Caspase-Glo® 3/7 Assay is a luminescent assay that measures caspase-3 and -7 activities in purified enzyme preparations or cultures of adherent or suspension cells. The assay provides a proluminescent caspase-3/7 substrate, which contains the tetrapeptide sequence DEVD. This substrate is cleaved to release aminoluciferin, a substrate of luciferase used in the production of light. Addition of the single Caspase-Glo® 3/7 Reagent in an “add-mix-measure” format results in cell lysis, followed by caspase cleavage of the substrate and generation of a “glow-type” luminescent signal. This assay uses the MOLP-8 human multiple myeloma cell line, which is sensitive to MCL-1 inhibition.
• Perkin Elmer Envision • Multidrop 384 and small volume dispensing cassettes • Centrifuge • Countess automated cell counter • Countess counting chamber slides • Assay plate: ProxiPlate-384 Plus, White 384-shallow well Microplate • Sealing tape: Topseal A plus • T175 culture flask
Cell cultures were maintained between 0.2 and 2.0×10^6 cells/mL. The cells were harvested by collection in 50 mL conical tubes. The cells were then pelleted at 500 g for 5 mins before removing supernatant and resuspension in fresh pre-warmed culture medium. The cells were counted and diluted as needed.
The assay reagent was prepared by transferring the buffer solution to the substrate vial and mixing. The solution may be stored for up to 1 week at 4° C. with negligible loss of signal.
Compounds were delivered in assay-ready plates (Proxiplate) and stored at −20° C. Assays always include 1 reference compound plate containing reference compounds. The plates were spotted with 40 nL of compounds (0.5% DMSO final in cells; serial dilution; […] highest conc. 1/3 dilution, 10 doses, duplicates). The compounds were used at room temperature and 4 μL of pre-warmed media was added to all wells except column 2 and 23. The negative control was prepared by adding 1% DMSO in media. The positive control was prepared by adding the appropriate positive control compound in final concentration of […] in media. The plate was prepared by adding 4 μL negative control to column 23, 4 μL positive control to column 2 and 4 μL cell suspension to all wells in the plate. The plate with cells was then incubated at 37° C. for 2 hours. The assay signal reagent is the Caspase-Glo solution described above, and 8 μL was added to all wells. The plates were then sealed and measured after 30 minutes.
The activity of a test compound was calculated as percent change in apoptosis induction as follows: […]

Consider 18 molecules from patent US20230250109A1, “MACROCYCLIC ETHER CONTAINING INDOLE DERIVATIVES AS INHIBITORS OF MCL-1” (Janssen Pharmaceutica NV, priority 2020, published 2023).

For orientation: Ki means a dissociation constant, usually derived from enzyme kinetics or from competition with a known ligand. The term AC50 denotes the concentration giving half of the maximal activity seen. A word on the melting point: it is the temperature of the solid-liquid transition.

Where two headings read alike, the source gives them in different places.

Chain of Myeloid Cell Leukemia 1 (Mcl-1) (Q07820 whole entry, the tested form may be a part): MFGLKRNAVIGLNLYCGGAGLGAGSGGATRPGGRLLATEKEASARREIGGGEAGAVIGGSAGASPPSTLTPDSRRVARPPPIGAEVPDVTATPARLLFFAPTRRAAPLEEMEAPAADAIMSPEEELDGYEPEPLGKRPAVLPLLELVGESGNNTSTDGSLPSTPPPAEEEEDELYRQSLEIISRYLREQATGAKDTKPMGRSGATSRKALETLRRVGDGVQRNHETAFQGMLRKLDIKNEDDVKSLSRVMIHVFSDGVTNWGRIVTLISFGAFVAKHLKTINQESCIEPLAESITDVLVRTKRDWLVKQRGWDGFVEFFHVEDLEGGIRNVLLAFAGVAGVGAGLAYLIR

Take `Cc1c2c(nn1C)COCc1cc(n(CCN(C)C)n1)CSc1cc(c3ccccc3c1)OCCCc1c(C(=O)O)n(C)c3c-2c(Cl)ccc13` (single isomer, unassigned) [Compound 16]: in data set [1], the Ki stood at 0.072 nM. Besides, in data set [2] (Homo sapiens, MOLP-8, 2 h), the concentration at half-maximal activity (AC50) stood at 185 nM.
For `Cc1c2c(nn1C)C(C)OCc1cc(n(C)n1)CSc1cc(c3ccccc3c1)OCCCc1c(C(=O)O)n(C)c3c-2c(Cl)ccc13` (single isomer, unassigned) [Compound 12], the Ki in data set [1] stood at 0.036 nM. Further, in data set [2], the half-maximal activity concentration (AC50) amounted to 59.4 nM.
With `Cc1c2c(nn1C)COCc1cc(nn1CCN(C)C)CSc1cc(c3ccccc3c1)OCCCc1c(C(=O)O)n(C)c3c-2c(Cl)ccc13` (single isomer, unassigned) [Compound 15], in data set [1], the Ki came to 0.111 nM. In addition, the concentration at half-maximal activity (AC50) in data set [2] (Homo sapiens, MOLP-8, 2 h) came out at 388 nM.
In the case of `Cc1c2c(nn1C)COCc1cc(n(C)n1)CCc1cc(c3ccccc3c1)OCCCc1c(C(=O)O)n(C)c3c-2c(Cl)ccc13` (single isomer, unassigned) [Compound 1], in data set [1], the Ki is 0.047 nM. In data set [2], the AC50 is 83.3 nM.
The like results for `Cc1c2c(nn1C)COCc1cc(n(C)n1)CSc1cc(c3ccccc3c1)OCCCc1c(C(=O)O)n(C)c3c-2c(Cl)ccc13` (single isomer, unassigned) [Compound 5] were, in that order, 0.057 nM and 83.7 nM.
For `COCCOCCn1nc(C)c2c1COCc1cc(n(C)n1)CCc1cc(c3ccc(F)cc3c1)OCCCc1c(C(=O)O)n(C)c3c-2c(Cl)ccc13` (single isomer, unassigned) [Compound 17] the same measures were 0.025 nM and 7.4 nM.
For `Cc1c2c(nn1C)COCc1cc(n[nH]1)CSc1cc(c3ccccc3c1)OCCCc1c(C(=O)O)n(C)c3c-2c(Cl)ccc13` (single isomer, unassigned) [Compound 13] the same measures were 0.128 nM and 411 nM.
For the molecule `COCCOCCn1nc(C)c2c1COCc1cc(n(C)n1)CCc1cc(c3ccc(F)cc3c1)OCCCc1c(C(=O)O)n(C)c3c-2c(Cl)ccc13` (single isomer, unassigned) [Compound 19], the inhibitory constant (Ki) in data set [1] is 1.34 nM. Also, the AC50 in data set [2] was 626 nM.
Take `Cc1c2c(nn1C)C(C)OCc1cc(n(C)n1)CSc1cc(c3ccccc3c1)OCCCc1c(C(=O)O)n(C)c3c-2c(Cl)ccc13` (single isomer, unassigned) [Compound 11]: in data set [1], the inhibition constant (Ki) came out at 33.1 nM. For the same molecule, the AC50 in data set [2] turned out to be 18100 nM.
The like results for `COCCOCCn1nc2c(c1C)-c1c(Cl)ccc3c(c(C(=O)O)n(C)c13)CCCOc1cc(cc3cc(F)ccc13)CCc1cc(nn1C)COC2` (single isomer, unassigned) [Compound 20] were, in that order, 4.14 nM and 3450 nM.
As for `CCc1c2c(nn1C)COCc1cc(n(C)n1)CSc1cc(c3ccccc3c1)OCCCc1c(C(=O)O)n(C)c3c-2c(Cl)ccc13` (single isomer, unassigned) [Compound 7], the melting point worked out at 269.16 °C. Besides, the Ki in data set [1] turned out to be 0.055 nM. The AC50 in data set [2] came to 83.7 nM.
In the case of `Cc1c2c(nn1C)C(C)OCc1cc(n(C)n1)CSc1cc(c3ccccc3c1)OCCCc1c(C(=O)O)n(C)c3c-2c(Cl)ccc13` (single isomer, unassigned) [Compound 9], the Ki in data set [1] turned out to be 0.241 nM. Also, the AC50 in data set [2] is 246 nM.
For `COCCOCCn1nc2c(c1C)-c1c(Cl)ccc3c(c(C(=O)O)n(C)c13)CCCOc1cc(cc3cc(F)ccc13)CCc1cc(nn1C)COC2` (single isomer, unassigned) [Compound 18] the same measures were 0.02 nM and 17.6 nM.
The like results for `Cc1c2c(nn1C)COCc1cc(n(C)n1)CCc1cc(c3ccccc3c1)OCCCc1c(C(=O)O)n(C)c3c-2c(Cl)ccc13` (single isomer, unassigned) [Compound 2] were, in that order, 0.444 nM and 954 nM.
The like results for `Cc1c2c(nn1C)COCc1cc(n[nH]1)CSc1cc(c3ccccc3c1)OCCCc1c(C(=O)O)n(C)c3c-2c(Cl)ccc13` (single isomer, unassigned) [Compound 14] were, in that order, 21.6 nM and 18000 nM.
Regarding `Cc1c2c(nn1C)C(C)OCc1cc(n(C)n1)CSc1cc(c3ccccc3c1)OCCCc1c(C(=O)O)n(C)c3c-2c(Cl)ccc13` (single isomer, unassigned) [Compound 10], in data set [1], the Ki is 19.8 nM. Moreover, in data set [2], the AC50 was determined as 14700 nM.
As to `CCc1c2c(nn1C)COCc1cc(n(C)n1)CSc1cc(c3ccccc3c1)OCCCc1c(C(=O)O)n(C)c3c-2c(Cl)ccc13` (single isomer, unassigned) [Compound 8], the melting point is 264.21 °C. The Ki in data set [1] is 8.12 nM. Further, in data set [2], the concentration at half-maximal activity (AC50) was found to be 5380 nM.
Regarding `Cc1c2c(nn1C)COCc1cc(n(C)n1)CSc1cc(c3ccccc3c1)OCCCc1c(C(=O)O)n(C)c3c-2c(Cl)ccc13` (single isomer, unassigned) [Compound 6], the inhibition constant Ki in data set [1] worked out at 11.7 nM. For the same molecule, the AC50 in data set [2] was 6640 nM.
